The source of these data is patent US7754880B2, “Uracils having a herbicidal activity” (Isagro Ricerca S.r.l., priority 2002, dated 2010).

Usually melting point stands for the temperature of the solid-liquid transition.

Regarding `Cn1c(C(F)(F)F)cc(=O)n(-c2cc(Oc3nnc(C(F)(F)F)s3)c(Cl)cc2Cl)c1=O` [Compound No 84, 3-(2,4-dichloro-5-{[5-(trifluoromethyl)-1,3,4-thiadiazol-2-yl]oxy}phenyl)-1-methyl-6-(trifluoromethyl)-2,4(1H,3H)-pyrimidinedione], the melting point amounted to 90 °C. On to `CCOC(=O)/C=C(\COc1cc(-n2c(=O)cc(C(F)(F)F)n(C)c2=O)c(Cl)cc1Cl)OC` [Compound No 99, ethyl (2E)-4-{2,4-dichloro-5-[1,2,3,6-tetrahydro-3-methyl-2,6-dioxo-4-(trifluoromethyl)pyrimidin-1-yl]phenoxy}-3-methoxybut-2-enoate], for which the melting point came out at 128 °C. The compound `CCOC(=O)/C=C(\COc1cc(-n2c(=O)cc(C(F)(F)F)n(C)c2=O)c(F)cc1Cl)OC` [Compound No 100, ethyl (2E)-4-{2-chloro-4-fluoro-5-[1,2,3,6-tetrahydro-3-methyl-2,6-dioxo-4-(trifluoromethyl)pyrimidin-1-yl]phenoxy}-3-methoxybut-2-enoate] had a melting point of 78 °C. Consider `COCn1nnc(-c2cc(-n3c(=O)cc(C(F)(F)F)n(C)c3=O)ccc2Cl)n1` [Compound No 101, 3-{4-chloro-3-[2-(methoxymethyl)-2H-tetrazol-5-yl]phenyl}-1-methyl-6-(trifluoromethyl)-2,4(1H,3H)-pyrimidinedione], for which the melting point is 80 °C. As for `COCn1nnnc1-c1cc(-n2c(=O)cc(C(F)(F)F)n(C)c2=O)ccc1Cl` [Compound No 102, 3-{4-chloro-3-[1-(methoxymethyl)-1H-tetrazol-5-yl]phenyl}-1-methyl-6-(trifluoromethyl)-2,4(1H,3H)-pyrimidinedione], the melting point stood at 182 °C. In the case of `CCOCn1nnc(-c2cc(-n3c(=O)cc(C(F)(F)F)n(C)c3=O)ccc2Cl)n1` [Compound No 103, 3-{4-chloro-3-[2-(ethoxymethyl)-2H-tetrazol-5-yl]phenyl}-1-methyl-6-(trifluoromethyl)-2,4(1H,3H)-pyrimidinedione] it was 140 °C.

Take `CCOCn1nnnc1-c1cc(-n2c(=O)cc(C(F)(F)F)n(C)c2=O)ccc1Cl` [Compound No 104, 3-{4-chloro-3-[1-(ethoxymethyl)-1H-tetrazol-5-yl]phenyl}-1-methyl-6-(trifluoromethyl)-2,4(1H,3H)-pyrimidinedione]: the melting point came to 157 °C.

Compound `C=CCn1nnc(-c2cc(-n3c(=O)cc(C(F)(F)F)n(C)c3=O)ccc2Cl)n1` [Compound No 105, 3-[3-(2-allyl-2H-tetrazol-5-yl)-4-chlorophenyl]-1-methyl-6-(trifluoromethyl)-2,4(1H,3H)-pyrimidinedione] had a melting point of 116 °C. The compound `C=CCn1nnnc1-c1cc(-n2c(=O)cc(C(F)(F)F)n(C)c2=O)ccc1Cl` [Compound No 106, 3-[3-(1-allyl-1H-tetrazol-5-yl)-4-chlorophenyl]-1-methyl-6-(trifluoromethyl)-2,4(1H,3H)-pyrimidinedione] returned a melting point of 160 °C.

With `Cc1cc(COc2cc(-n3c(=O)cc(C(F)(F)F)n(C)c3=O)c(F)cc2Cl)on1` [Compound No 107, 3-{4-chloro-2-fluoro-5-[(3-methylisoxazol-5-yl)methoxy]phenyl}-1-methyl-6-(trifluoromethyl)-2,4(1H,3H)-pyrimidinedione], the melting point is 154 °C. `Cc1cc(COc2cc(-n3c(=O)cc(C(F)(F)F)n(C)c3=O)c(Cl)cc2Cl)on1` [Compound No 108, 3-{2,4-dichloro-5-[(3-methylisoxazol-5-yl)methoxy]phenyl}-1-methyl-6-(trifluoromethyl)-2,4(1H,3H)-pyrimidinedione] returned a melting point of 185 °C. `Cc1nc(COc2cc(-n3c(=O)cc(C(F)(F)F)n(C)c3=O)c(Cl)cc2Cl)no1` [Compound No 112, 3-{2,4-dichloro-5-[(5-methyl-1,2,4-oxadiazol-3-yl)methoxy]phenyl}-1-methyl-6-(trifluoromethyl)-2,4(1H,3H)-pyrimidinedione]: the melting point amounted to 167 °C.

As to `Cn1c(C(F)(F)F)cc(=O)n(-c2ccc(Cl)c(-c3nc4ccccc4s3)c2)c1=O` [Compound No 113, 3-[3-(1,3-benzothiazol-2-yl)-4-chlorophenyl]-1-methyl-6-(trifluoromethyl)-2,4(1H,3H)-pyrimidinedione], the melting point is 189 °C. The figure for `Cn1c(C(F)(F)F)cc(=O)n(-c2ccc(Cl)c(-c3nc4ccccc4o3)c2)c1=O` [Compound No 114, 3-[3-(1,3-benzoxazol-2-yl)-4-chlorophenyl]-1-methyl-6-(trifluoromethyl)-2,4(1H,3H)-pyrimidinedione] is 183 °C; for `Cn1c(C(F)(F)F)cc(=O)n(-c2cc(OCc3ncon3)c(Cl)cc2F)c1=O` [Compound No 117, 3-[4-chloro-2-fluoro-5-(1,2,4-oxadiazol-3-ylmethoxy)phenyl]-1-methyl-6-(trifluoromethyl)-2,4(1H,3H)-pyrimidinedione] it is 122 °C; for `Cn1c(C(F)(F)F)cc(=O)n(-c2ccc(Cl)c(-c3nnn(C(C)(C)C)n3)c2)c1=O` [Compound No 118, 3-[3-(2-tert-butyl-2H-tetrazol-5-yl)-4-chlorophenyl]-1-methyl-6-(trifluoromethyl)-2,4(1H,3H)-pyrimidinedione] it is 154 °C. `Cn1c(C(F)(F)F)cc(=O)n(-c2cc(-c3nc4ccccc4s3)c(Cl)cc2F)c1=O` [Compound No 119, 3-[5-(1,3-benzothiazol-2-yl)-4-chloro-2-fluorophenyl]-1-methyl-6-(trifluoromethyl)-2,4(1H,3H)-pyrimidinedione] had a melting point of 211 °C. `Cn1c(C(F)(F)F)cc(=O)n(-c2cc(-c3nc4ccccc4o3)c(Cl)cc2F)c1=O` [Compound No 122, 3-[5-(1,3-benzoxazol-2-yl)-4-chloro-2-fluorophenyl]-1-methyl-6-(trifluoromethyl)-2,4(1H,3H)-pyrimidinedione] yielded a melting point of 178 °C. `Cn1c(C(F)(F)F)cc(=O)n(-c2cc(-c3nc4ccccc4s3)c(Cl)cc2Cl)c1=O` [Compound No 123, 3-[5-(1,3-benzothiazol-2-yl)-2,4-dichlorophenyl]-1-methyl-6-(trifluoromethyl)-2,4(1H,3H)-pyrimidinedione] yielded a melting point of 195 °C. The compound `Cc1ccc2nc(-c3cc(-n4c(=O)cc(C(F)(F)F)n(C)c4=O)c(Cl)cc3Cl)oc2c1` [Compound No 124, 3-[2,4-dichloro-5-(6-methyl-1,3-benzoxazol-2-yl)phenyl]-1-methyl-6-(trifluoromethyl) 2,4(1H,3H)-pyrimidinedione] had a melting point of 200 °C. The figure for `CN(C)C(=O)Cn1nnc(-c2cc(-n3c(=O)cc(C(F)(F)F)n(C)c3=O)ccc2Cl)n1` [Compound No 125, 2-(5-{2-chloro-5-[1,2,3,6-tetrahydro-3-methyl-2,6-dioxo-4-(trifluoromethyl)pyrimidin-1-yl]phenyl}-2H-tetrazol-2-yl)-N,N-dimethylacetamide] is 208 °C. Compound `Cn1c(C(F)(F)F)cc(=O)n(-c2ccc(Cl)c(-c3nnn(CC(N)=O)n3)c2)c1=O` [Compound No 126, 2-(5-{2-chloro-5-[1,2,3,6-tetrahydro-3-methyl-2,6-dioxo-4-(trifluoromethyl)pyrimidin-1-yl]phenyl}-2H-tetrazol-2-yl)acetamide] returned a melting point of 200 °C. `CC(C)Cc1csc(-c2cc(-n3c(=O)cc(C(F)(F)F)n(C)c3=O)c(Cl)cc2Cl)n1` [Compound No 129, 3-[2,4-dichloro-5-(4-isobutyl-1,3-thiazol-2-yl)phenyl]-1-methyl-6-(trifluoromethyl) 2,4(1H,3H)-pyrimidinedione]: the melting point worked out at 167 °C.

Regarding `CCOC(=O)c1sc(-c2cc(-n3c(=O)cc(C(F)(F)F)n(C)c3=O)ccc2Cl)nc1C` [Compound No 131, ethyl 2-{2-chloro-5-[1,2,3,6-tetrahydro-3-methyl-2,6-dioxo-4-(trifluoromethyl)pyrimidin-1-yl]phenyl}-4-methyl-1,3-thiazole-5-carboxylate], the melting point was 200 °C. The figure for `Cn1c(C(F)(F)F)cc(=O)n(-c2cc(OCc3cc(C(C)(C)C)no3)c(Cl)cc2F)c1=O` [Compound No 132, 3-{5-[(3-tert-butylisoxazol-5-yl)methoxy]-4-chloro-2-fluorophenyl}-1-methyl-6-(trifluoromethyl)-2,4(1H,3H)-pyrimidinedione] is 142 °C; for `CC(C)c1cc(COc2cc(-n3c(=O)cc(C(F)(F)F)n(C)c3=O)c(F)cc2Cl)on1` [Compound No 133, 3-{4-chloro-2-fluoro-5-[(3-isopropylisoxazol-5-yl)methoxy]phenyl}-1-methyl-6-(trifluoromethyl)-2,4(1H,3H)-pyrimidinedione] it is 128 °C.

`CC(C)n1nnc(-c2cc(-n3c(=O)cc(C(F)(F)F)n(C)c3=O)ccc2Cl)n1` [Compound No 134, 3-[4-chloro-3-(2-isopropyl-2H-tetrazol-5-yl)phenyl]-1-methyl-6-(trifluoromethyl)-2,4(1H,3H)-pyrimidinedione] came in with a melting point of 147 °C.

`CCOC(=O)c1csc(-c2cc(-n3c(=O)cc(C(F)(F)F)n(C)c3=O)ccc2Cl)n1` [Compound No 156, ethyl 2-{2-chloro-5-[1,2,3,6-tetrahydro-3-methyl-2,6-dioxo-4-(trifluoromethyl)pyrimidin-1-yl]phenyl}-1,3-thiazole-4-carboxylate] returned a melting point of 197 °C.

Consider `CCCCn1nnc(-c2cc(-n3c(=O)cc(C(F)(F)F)n(C)c3=O)ccc2Cl)n1` [Compound No 157, 3-[3-(2-butyl-2H-tetrazol-5-yl)-4-chlorophenyl]-1-methyl-6-(trifluoromethyl)-2,4(1H,3H)-pyrimidinedione], for which the melting point worked out at 108 °C.
